According to patent US20220348870A1, “MATERIALS AND METHODS FOR MODIFYING THE ACTIVITY OF T CELLS” (Regents of the University of Minnesota, priority 2016, published 2022):

Experiments:
human tTreg [1] = test: Foxp3 expression in expanded tTreg by flow cytometry; type: cell-based; conditions: for Foxp3 protein expression at the population level (% Foxp3+CD127−): 50 nM RNA, antagomir vs scrambled P<0.05
Procedure: (§1) tTreg and CD4+ T-cell cultures, generated as described herein, were frozen on days 14 and 7, respectively. Frozen cells were thawed and re-stimulated with anti-CD3/CD28 mAb-coated Dynabeads (Life Technologies, Carlsbad, Calif.) at 1:3 (cell to bead) ratios in the presence of recombinant IL-2. After 6 days, cultures were washed, re-suspended at 1×10^6 cells/ml, and nanoparticle-encapsulated RNA (50 nM; Scramble/Antagomir, Table 4: EXIQON, Woburn, Mass.) or TRAF6 inhibitor (8 μM, Darmstadt, Germany) or NF-kB inhibitor (PS-1145, 3 μM or 6 μM, Millennium Pharmaceuticals, Cambridge, Mass.) were added. DMSO were vehicles and used as controls. Cells were cultured another 2 days without further manipulation, and were harvested and assayed as listed. For some experiments, tTreg were kept in culture longer (as indicated) without further antagomir addition.
(§2) Human-specific antibodies used for flow cytometry included: CD4 (RPA-T4), CD8 (RPA-T8), CD25 (M-A251), CD45RA (HI100), IFN-gamma, IL-17a, annexin V (PE), 7-AAD (FITC) were purchased from BD Pharmingen, while Foxp3 (clone 249D) was obtained from BioLegend and Ki67 from eBioscience. For cytokine analysis, cells were pre-treated by PMA, ionomycin and brefeldin A for 6 hours and then stained by different cytokine antibodies. The annexin V (PE)/7-AAD (FITC) were applied to assess the apoptosis of tTreg. Acquisition was performed using a LSRII (BD Bioscience) and data were analyzed using FlowJo software (TreeStar) or IDEA (Admin). Nuclear localization of NF-kB was quantitated using an imaging flow cytometer (Imagestream, Amnis Corp; Seattle, Wash.) by intracellularly staining tTreg with anti-NF-kB (vendor) and, after washing, incubating with DRAQ5 for 15 minutes at 10 μM final concentration.

TRAF6 = TRAF6 mRNA (RT-PCR) and protein (flow cytometry) expression in tTreg; type: cell-based, human; conditions: expanded tTregs; for TRAF6 mRNA expression: RT-PCR
Procedure: as §1
as §2, with “For cytokine analysis, cells were pre-treated by PMA, ionomycin and brefeldin A for 6 hours and then stained by different cytokine antibodies. The annexin V (PE)/7-AAD (FITC) were applied to assess the apoptosis of tTreg.” left out
(§3) RNA was extracted from cell pellets using RNeasy Mini Kit with on-column DNase digestion (Qiagen; Hilden, Germany). cDNA synthesis was performed as described in the Expression Analysis Technical Manual (Affymetrix; Santa Clara, Calif.). GAPDH was used as control gene and related gene expression (Bcl-2, Mcl-1, Bcl-xL, BID and BAX; all from IDT, Coralville, Iowa), was analyzed on an Applied Biosystems 7500 Real-Time PCR System using Taqman Universal PCR Master Mix #4304437 and Assay on Demand primer/probe kits (Applied Biosystems; Waltham, Mass.). […]

miR-146b-5p = miR-146b-5p knockdown in expanded tTreg by qRT-PCR; type: cell-based, human
Procedure: as §1, with “For some experiments, tTreg were kept in culture longer (as indicated) without further antagomir addition.” left out
as §3

human tTreg [2] = test: CFSE in vitro suppression assay (anti-CD3-mediated CD8+ T cell proliferation); type: cell-based
Procedure: The in vitro-suppressive capacity of expanded tTregs was assessed with a carboxy fluorescein succinimidyl ester (CFSE) inhibition assay as previously published (Hippen et al., Blood, 2008, 112(7):2847-57). Briefly, PBMNCs were purified, labeled with CFSE (Invitrogen), and stimulated with anti-CD3 mAb-coated beads (Dynal) ±cultured tTreg (1:2 to 1:32 tTregs/PBMNCs). On day 4, cells were stained with antibodies to CD4 and CD8, and suppression was determined from the Division Index (FlowJo, TreeStar). nTregs suppressed CD4 and CD8 T cell responses equivalently and only CD8 data are presented.

human tTreg [3] = test: tTreg expansion, viability (annexin V/7-AAD) and Ki-67 staining; type: cell-based
Procedure: as §1, §2

human tTreg [4] = test: Intracellular IFN-gamma assay after PMA/ionomycin re-stimulation; type: cell-based; conditions: final 2 days treatment
Procedure: as §2

control CD4 T-cells = test: Foxp3 expression and suppressive function of control CD4 T-cells; type: cell-based, human; conditions: antagomir for final 2 days
Procedure: as §1, with “Cells were cultured another 2 days without further manipulation, and were harvested and assayed as listed. For some experiments, tTreg were kept in culture longer (as indicated) without further antagomir addition.” left out
as §2, with “For cytokine analysis, cells were pre-treated by PMA, ionomycin and brefeldin A for 6 hours and then stained by different cytokine antibodies. The annexin V (PE)/7-AAD (FITC) were applied to assess the apoptosis of tTreg.” left out, “concentration. […]” for “concentration.”

NF-kB = NF-kB nuclear localization by imaging flow cytometry; type: cell-based, human; conditions: tTreg, 2 days, vs untreated or scramble-treated
Procedure: as §2
TRAF6 is critical for TCR-mediated activation of NF-kB, and acts by ubiquitinylating TAK1, leading to activation of IKK and destruction of IkB, which allows NF-kB to translocate to the nucleus. To determine whether miR-146 antagomir enhanced NF-kB nuclear translocation, in vitro expanded tTreg were left untreated or treated for 2 days with scrambled RNA or miR-146b-5p antagomir, stained for CD4, NF-kB and DRAQ5 (a nuclear marker) and analyzed using imaging flow cytometry. […]

human tTreg [5] = test: qRT-PCR of NF-kB-responsive, anti- and pro-apoptotic genes in tTreg; type: cell-based
Procedure: RNA was extracted from cell pellets using RNeasy Mini Kit with on-column DNase digestion (Qiagen; Hilden, Germany). cDNA synthesis was performed as described in the Expression Analysis Technical Manual (Affymetrix; Santa Clara, Calif.). GAPDH was used as control gene and related gene expression (Bcl-2, Mcl-1, Bcl-xL, BID and BAX; all from IDT, Coralville, Iowa), was analyzed on an Applied Biosystems 7500 Real-Time PCR System using Taqman Universal PCR Master Mix #4304437 and Assay on Demand primer/probe kits (Applied Biosystems; Waltham, Mass.). For TLDA assay, TLDA v2.0 was performed on the 7900HT real-time PCR system (Applied Biosystems) according to the manufacturer's protocol. Average delta CT was acquired from the results for further analysis. PCR cycling conditions were performed as follows: 95° C. for 15 s and 60° C. for 1 min, 40 cycles and then 95° C. for 10 min. To normalize RNA input, Human RNU44 (Table 4) small RNA was used as an internal control.

Scramble: nanoparticle-encapsulated scrambled control RNA, TAA CAC GTC TAT ACG CCC A (SEQ ID NO: 1) (TAACACGTCTATACGCCCA; nanoparticle-encapsulated, chemistry not given here) [reference compound]
Foxp3 protein expression at the population level (% Foxp3+CD127−) (human tTreg [1]; tTreg, final 2 days): 73.1%±4.6%
TRAF6 mRNA expression (TRAF6): no effect was observed

miR-146b-5p antagomir: nanoparticle-encapsulated antagomir RNA (EXIQON), AGCCTATGGAATTCAGTTCTC (SEQ ID NO: 2) (AGCCTATGGAATTCAGTTCTC; nanoparticle-encapsulated Exiqon antagomir, chemistry not given here)
miR-146b expression reduced (miR-146b-5p; day 8 after a single antagomir treatment (not shown)): 70%
miR-146b-5p knockdown efficiency (miR-146b-5p; tTreg, nanoparticle-encapsulated antagomir 50 nM, 2 days, qRT-PCR): > 95%
Foxp3 expression (human tTreg [1]; day 8 after single treatment): maintained their higher Foxp3 expression
Foxp3 protein expression at the population level (% Foxp3+CD127−) (human tTreg [1]; tTreg, final 2 days): 85.5%±3.5%
Foxp3 protein expression at per-cell level (human tTreg [1]; tTreg, 2 days, compared to scrambled group): increased Foxp3 protein expression
suppressive function (human tTreg [2]; day 8 after single treatment): maintained their higher Foxp3 expression and suppressive function
increase in efficacy of tTreg suppressive function (human tTreg [2]; tTreg:PBMC 1:8 to 1:32, antagomir-treated at 1:16 as suppressive as scramble-treated at 1:8): ~2 fold
tTreg viability (human tTreg [3]; 2 days treatment, annexin V/7-AAD): increased viability
Ki67 MFI level (human tTreg [3]; 2 days treatment, n=5): higher relative Ki67 MFI level
tTreg expansion (human tTreg [3]; day 8 post single treatment, vs untreated or scrambled RNA): expanded significantly more
tTreg expansion (human tTreg [3]; initial 2 day treatment period): no significant difference in expansion
IFN-gamma expression in expanded tTregs (human tTreg [4]): expression was not affected
FoxP3 expression in control CD4 T-cells (control CD4 T-cells): no effect on FoxP3 expression
suppressive function of control CD4 T-cells (control CD4 T-cells): no effect on FoxP3 expression or suppressive function
TRAF6 mRNA expression (TRAF6): significantly higher TRAF6 mRNA expression
TRAF6 protein expression (TRAF6; flow cytometry, vs untreated or scramble-treated): significantly enhanced TRAF6 protein expression
NF-kB/DRAQ5 similarity score (nuclear localization) (NF-kB): significantly higher similarity scores
Bcl-xL expression (human tTreg [5]; anti-apoptotic gene, tTreg): increased expression
Mcl-1 expression (human tTreg [5]; anti-apoptotic gene, tTreg): increased expression
c-myc expression increase (human tTreg [5]; over untreated or scramble-treated tTreg): > 3 fold
BAX expression (human tTreg [5]; pro-apoptotic gene, tTreg): decreased expression
BID expression (human tTreg [5]; pro-apoptotic gene, tTreg): decreased expression

O=C(Nc1cc(Cl)cc2c1[nH]c1cnccc12)c1cccnc1 [PS1145, reference compound]
Foxp3 expression (human tTreg [1]; tTreg, NF-kB inhibitor 3 μM or 6 μM, final 2 days, vs DMSO): decreased Foxp3 expression in a dose-dependent manner
in vitro suppressive function (human tTreg [2]; tTreg, NF-kB inhibitor, final 2 days): significantly decreased in vitro suppressive function
